# Literature values as cited in US20050214389A1, “Beta-carotene enriched extract from water hyacinth eichhornia crassipes” (Council of Scientific and Industrial Research, priority 2004, published 2005).
# System: polyamine oxidase
# Settings: purified polyamine oxidase from leaves of water hyacinth
row,SMILES,inhibition of the enzyme
1,O=C(O)c1cc[c]([Hg][Cl])cc1 [p-chloromercuribenzoate],without effect
2,CCN(CC)CCCC(C)Nc1c2ccc(Cl)cc2nc2ccc(OC)cc12 (stereo not shown) [quinacrine],strong inhibitors
3,NCCCCCCCCN [Octamethylenediamine],strong inhibitors

# Same assay, conditions: substrate of purified polyamine oxidase from leaves of water hyacinth
row,SMILES,Km [mM]
1,NCCCCNCCCN [spermidine],28
2,NCCCNCCCCNCCCN [spermine],20

# System: Enterobacter sp. F2
# Settings: concentrations of from 10-7 to 10-2 mol/L
row,SMILES,chemotaxis (attraction of F2)
1,CSCC[C@H](N)C(=O)O [methionine],strongly attracted
2,N[C@@H](Cc1c[nH]cn1)C(=O)O [histidine],some degrees
3,NCC(=O)O [glycine],strongly attracted
4,N=C(N)NCCC[C@H](N)C(=O)O [arginine],not
5,N[C@@H](Cc1ccccc1)C(=O)O [phenylalanine],not
6,O=C(O)[C@@H]1CCCN1 [proline],not
7,N[C@@H](CO)C(=O)O [serine],strongly attracted
8,NC(=O)CC[C@H](N)C(=O)O [glutamine],not
9,C[C@H](N)C(=O)O [alanine],strongly attracted
10,NCCCC(=O)O [gamma amino butyric acid],strongly attracted
11,CC(C)[C@H](N)C(=O)O [valine],strongly attracted
12,N[C@@H](Cc1c[nH]c2ccccc12)C(=O)O [tryptophan],not
13,N[C@@H](Cc1ccc(O)cc1)C(=O)O [tyrosine],not
14,CC(C)C[C@H](N)C(=O)O [leucine],strongly attracted
15,CC[C@H](C)[C@H](N)C(=O)O [isoleucine],not
16,NCCCC[C@H](N)C(=O)O [lysine],not
17,NC(=O)C[C@H](N)C(=O)O [asparagine],not
18,N[C@@H](CS)C(=O)O [cysteine],not
19,C[C@@H](O)[C@H](N)C(=O)O [threonine],some degrees
20,N[C@@H](CCC(=O)O)C(=O)O [glutamate],some degrees
